Assay results reported in PubChem BioAssay (NCI).
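Growth conditions: 96-well plates. Treatment: test compound, 48 hours, 5 concentrations. Analysis: linear interpolation between bracketing concentrations; unreached endpoints set to highest concentration. At the GI50, growth is halved. TGI: concentration producing complete growth inhibition.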

Assays:
Experiment in all cases: growth of human tumour cells (NCI), 48 h
SF-295 CNS = tested on: SF-295 CNS
SF-268 CNS = tested on: SF-268 CNS
ACHN renal = tested on: ACHN renal
T-47D breast = tested on: T-47D breast
SK-MEL-5 melanoma = tested on: SK-MEL-5 melanoma
UACC-257 melanoma = tested on: UACC-257 melanoma
MOLT-4 leukemia = tested on: MOLT-4 leukemia
A549 NSCLC = tested on: A549 NSCLC
HT29 colon = tested on: HT29 colon
HOP-92 NSCLC = tested on: HOP-92 NSCLC
SF-539 CNS = tested on: SF-539 CNS
CAKI-1 renal = tested on: CAKI-1 renal
PC-3 prostate = tested on: PC-3 prostate
SNB-19 CNS = tested on: SNB-19 CNS
UACC-62 melanoma = tested on: UACC-62 melanoma
NCI-H522 lung = tested on: NCI-H522 lung
UO-31 renal = tested on: UO-31 renal
K-562 leukemia = tested on: K-562 leukemia
U251 CNS = tested on: U251 CNS
MALME-3M melanoma = tested on: MALME-3M melanoma
SNB-75 CNS = tested on: SNB-75 CNS
OVCAR-4 ovarian = tested on: OVCAR-4 ovarian
SK-MEL-2 melanoma = tested on: SK-MEL-2 melanoma
M14 melanoma = tested on: M14 melanoma
TK-10 renal = tested on: TK-10 renal
OVCAR-8 ovarian = tested on: OVCAR-8 ovarian
RXF 393 renal = tested on: RXF 393 renal
LOX IMVI melanoma = tested on: LOX IMVI melanoma
SK-MEL-28 melanoma = tested on: SK-MEL-28 melanoma
COLO 205 colon = tested on: COLO 205 colon
SK-OV-3 ovarian = tested on: SK-OV-3 ovarian
NCI-H226 lung = tested on: NCI-H226 lung
A498 renal = tested on: A498 renal
OVCAR-5 ovarian = tested on: OVCAR-5 ovarian
KM12 colon = tested on: KM12 colon
SR leukemia = tested on: SR leukemia
HOP-62 NSCLC = tested on: HOP-62 NSCLC
HL-60(TB) leukemia = tested on: HL-60(TB) leukemia
BT-549 breast = tested on: BT-549 breast
MDA-MB-435 = tested on: MDA-MB-435
SW-620 colon = tested on: SW-620 colon
SN12C renal = tested on: SN12C renal
HCT-116 colon = tested on: HCT-116 colon
EKVX NSCLC = tested on: EKVX NSCLC
NCI-H460 lung = tested on: NCI-H460 lung
NCI/ADR-RES ovarian = tested on: NCI/ADR-RES ovarian
HCC-2998 colon = tested on: HCC-2998 colon
MDA-MB-231 breast = tested on: MDA-MB-231 breast
HS 578T breast = tested on: HS 578T breast
786-0 renal = tested on: 786-0 renal
HCT-15 colon = tested on: HCT-15 colon
IGROV1 ovarian = tested on: IGROV1 ovarian
OVCAR-3 ovarian = tested on: OVCAR-3 ovarian

## OC1CCN(CCCOc2c3ccc(Cl)cc3nc3c2oc2ccc(Cl)cc23)CC1
SF-295 CNS
  GI50: 3020 nM
  TGI: 15800 nM
SF-268 CNS
  GI50: 1150 nM
  TGI: 4500 nM
ACHN renal
  GI50: 504 nM
  TGI: 1690 nM
T-47D breast
  GI50: 5770 nM
  TGI: 36500 nM
SK-MEL-5 melanoma
  GI50: 2230 nM
  TGI: 5030 nM
UACC-257 melanoma
  GI50: 1790 nM
  TGI: 3680 nM
MOLT-4 leukemia
  GI50: 443 nM
  TGI: 1960 nM
A549 NSCLC
  GI50: 1050 nM
  TGI: 2500 nM
HT29 colon
  GI50: 505 nM
  TGI: 1770 nM
HOP-92 NSCLC
  GI50: 588 nM
  TGI: 6770 nM
SF-539 CNS
  GI50: 1360 nM
  TGI: 2670 nM
CAKI-1 renal
  GI50: 877 nM
  TGI: 2120 nM
PC-3 prostate
  GI50: 1230 nM
  TGI: 2550 nM
SNB-19 CNS
  GI50: 1450 nM
  TGI: 3220 nM
UACC-62 melanoma
  GI50: 1830 nM
  TGI: 3780 nM
NCI-H522 lung
  GI50: 1800 nM
  TGI: 11100 nM
UO-31 renal
  GI50: 768 nM
  TGI: 2170 nM
K-562 leukemia
  GI50: 417 nM
  TGI: 1930 nM
U251 CNS
  GI50: 876 nM
  TGI: 2270 nM
MALME-3M melanoma
  GI50: 1730 nM
  TGI: 3480 nM
SNB-75 CNS
  GI50: 2850 nM
  TGI: 16300 nM
OVCAR-4 ovarian
  GI50: 1240 nM
  TGI: 2790 nM
SK-MEL-2 melanoma
  GI50: 5320 nM
  TGI: 17700 nM
M14 melanoma
  GI50: 1430 nM
  TGI: 2840 nM
TK-10 renal
  GI50: 3050 nM
  TGI: 8400 nM
OVCAR-8 ovarian
  GI50: 1540 nM
  TGI: 18900 nM
RXF 393 renal
  GI50: 1240 nM
  TGI: 2520 nM
LOX IMVI melanoma
  GI50: 298 nM
  TGI: 1420 nM
SK-MEL-28 melanoma
  GI50: 1770 nM
  TGI: 3180 nM
COLO 205 colon
  GI50: 1160 nM
  TGI: 3180 nM
SK-OV-3 ovarian
  GI50: 3370 nM
  TGI: 15500 nM
NCI-H226 lung
  GI50: 1670 nM
  TGI: 4130 nM
A498 renal
  GI50: 6740 nM
  TGI: 21100 nM
OVCAR-5 ovarian
  GI50: 1380 nM
  TGI: 2850 nM
KM12 colon
  GI50: 1060 nM
  TGI: 3610 nM
SR leukemia
  GI50: 595 nM
  TGI: 2620 nM
HOP-62 NSCLC
  GI50: 1850 nM
  TGI: 12500 nM
HL-60(TB) leukemia
  GI50: 1480 nM
  TGI: 3230 nM
BT-549 breast
  GI50: 4510 nM
  TGI: 18900 nM
MDA-MB-435
  GI50: 1340 nM
  TGI: 2700 nM
SW-620 colon
  GI50: 455 nM
  TGI: 1790 nM
SN12C renal
  GI50: 864 nM
  TGI: 2380 nM
HCT-116 colon
  GI50: 417 nM
  TGI: 1590 nM
EKVX NSCLC
  GI50: 2840 nM
  TGI: 13200 nM
NCI-H460 lung
  GI50: 465 nM
  TGI: 1990 nM
NCI/ADR-RES ovarian
  GI50: 718 nM
  TGI: 2770 nM
HCC-2998 colon
  GI50: 868 nM
  TGI: 15800 nM
MDA-MB-231 breast
  GI50: 1260 nM
  TGI: 2870 nM
HS 578T breast
  GI50: 2750 nM
  TGI: 17200 nM
786-0 renal
  GI50: 1130 nM
  TGI: 2490 nM
HCT-15 colon
  GI50: 518 nM
  TGI: 2070 nM
IGROV1 ovarian
  GI50: 1710 nM
  TGI: 15000 nM
OVCAR-3 ovarian
  GI50: 1560 nM
  TGI: 4120 nM
